# Reference: patent US8680159B2, “Bradykinin 1 receptor modulating compounds” (Gruenenthal GmbH, priority 2010, dated 2014)
# Target: T1, human B1R receptor (CHO K1 cells stably transfected with the human B1R gene) (Homo sapiens, UniProt P46663)
# T1 construct: expressed in transfected cells; host or cells: CHO K1 cells (Chinese hamster ovary), stably transfected
# T1 sequence (P46663 1-353): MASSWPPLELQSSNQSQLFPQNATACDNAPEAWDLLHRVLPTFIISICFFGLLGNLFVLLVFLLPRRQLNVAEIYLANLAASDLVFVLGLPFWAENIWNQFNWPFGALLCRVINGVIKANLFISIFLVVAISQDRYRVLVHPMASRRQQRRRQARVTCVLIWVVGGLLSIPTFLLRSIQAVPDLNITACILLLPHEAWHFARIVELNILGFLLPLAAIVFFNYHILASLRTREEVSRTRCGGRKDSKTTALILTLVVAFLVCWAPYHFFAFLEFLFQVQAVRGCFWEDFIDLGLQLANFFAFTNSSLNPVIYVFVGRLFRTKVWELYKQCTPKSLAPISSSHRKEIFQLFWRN
# Assay: Functional study on the bradykinin receptor 1 (B1R), Ca2+ fluorescence (Fluo-4) FLIPR/Novostar assay, hB1R cells
# Type: cell-based
# Conditions: CHO-K1, read-out: % Inhibition (h-B1R) at 10 μM
# Experimental: The agonistic or antagonistic action of substances can be quantified on the bradykinin receptor 1 (B1R) of the species human and rat using ectopically expressing cell lines (CHO K1 cells) and with the aid of a Ca^2+-sensitive dye (Fluo-4) using a fluorescent imaging plate reader (FLIPR). The indication in % activation is based on the Ca^2+ signal after addition of Lys-Des-Arg^9-bradykinin (0.5 nM) or Des-Arg^9-bradykinin (100 nM). Antagonists lead to suppression of the Ca^2+ influx after the addition of the agonist. % Inhibition compared with the maximum achievable inhibition is indicated.
# The agonistic or antagonistic action of substances can be determined on the bradykinin receptor 1 (B1R) of the species human and rat using the following assay. According to this assay, the increase in intracellular Ca^2+ following administration of a B1R agonist is quantified with the aid of a Ca^2+-sensitive dye (Fluo-4 type, Molecular Probes Europe BV, Leiden, Netherlands) using a Fluorescent Imaging Plate Reader (FLIPR, Molecular Devices, Sunnyvale, USA) and/or using a Novostar (BMG Labtech GmbH, Offenburg, Germany).
# Chinese hamster ovary cells (CHO K1 cells) which have been stably transfected with the human B1R gene (hB1R cells) or with the B1R gene of the rat (rB1R cells) are used. For functional studies, the cells are plated out on black 96-well plates having a clear base (BD Biosciences, Heidelberg, Germany or Greiner, Frickenhausen, Germany) in a density of 20,000-35,000 cells/well. The cells are left overnight at 37° C. and with 5% CO2 in culture medium (hB1R cells: Nutrient Mixture Ham's F12, Gibco Invitrogen GmbH, Karlsruhe, Germany or DMEM, Sigma-Aldrich, Taufkirchen, Germany; rB1R cells: D-MEM/F12, Gibco Invitrogen GmbH, Karlsruhe, Germany), with 10 vol. % FBS (fetal bovine serum, Gibco Invitrogen GmbH, Karlsruhe, Germany or PAN Biotech GmbH, Aidenbach, Germany). On the following day, the cells are loaded for 60 minutes at 37° C. with 2.13 μM Fluo-4 (Molecular Probes Europe BV, Leiden, Netherlands) in HBSS buffer (Hank's buffered saline solution, Gibco Invitrogen GmbH, Karlsruhe, Germany) […] (Sigma-Aldrich, Taufkirchen, Germany) and 10 mM HEPES (Sigma-Aldrich, Taufkirchen, Germany). The plates are then washed twice with HBSS buffer, and HBSS buffer additionally containing 0.1% BSA (bovine serum albumin; Sigma-Aldrich, Taufkirchen, Germany), 5.6 mM glucose and 0.05% gelatin (Merck KGaA, Darmstadt, Germany) is added to the plates. After incubation for a further 20 minutes at room temperature, the plates are inserted into the FLIPR or Novostar for Ca^2+ measurement. Alternatively, washing is carried out with buffer A (15 mM HEPES, 80 mM NaCl, 5 mM KCl, 1.2 mM CaCl2, 0.7 mM MgSO4, 2 g/l glucose, 2.5 mM probenecid) followed by loading with buffer A with added 2.5 μM Fluo-4 and 0.025% Pluronic F127 (Sigma-Aldrich, Taufkirchen, Germany). The cells are then washed twice with buffer A and incubated for 30 minutes at room temperature with buffer A additionally containing 0.05% BSA and 0.05% gelatin and are then inserted into the FLIPR or Novostar for Ca^2+ measurement. The Ca^2+-dependent fluorescence is measured before and after the addition of substances (λex=488 nm, λem=540 nm). Quantification is carried out by measuring the highest fluorescence intensity (FC, fluorescence counts) over time.
# The FLIPR protocol consists of 2 substance additions, which are pipetted in the FLIPR. In the case of measurements using the Novostar, only the second substance addition is pipetted in the device. Both devices measure the fluorescence intensity over time. Test substances (10 μM) are first pipetted onto the cells and the intracellular Ca^2+ increase is compared with the control (hB1R: Lys-Des-Arg^9-bradykinin>=50 nM; rB1R: Des-Arg^9-bradykinin>=1 μM). This gives the % activation, based on the Ca^2+ signal after addition of Lys-Des-Arg^9-bradykinin (>=50 nM) or Des-Arg^9-bradykinin (>=1 μM). […]
row,SMILES,inhibition at 10 µM [%]
1,"CN(C(=O)c1ccc2c(c1)C(NC(=O)c1cc(F)ccc1Cl)CC2)C1CCN(c2ccc3cnccc3c2)CC1 (stereo not shown) [CC_H-76, 3-[(2-Chloro-5-fluoro-benzoyl)amino]-N-(1-isoquinolin-6-yl-piperidin-4-yl)-N-methyl-2,3-dihydro-1H-indene-5-carboxylic acid amide]",100
2,"CN(C(=O)c1ccc2c(c1)C(NC(=O)C1CCCCC1)CC2)C1CCN(c2ccc3cnccc3c2)CC1 (stereo not shown) [CC_H-77, 3-(Cyclohexanecarbonylamino)-N-(1-isoquinolin-6-yl-piperidin-4-yl)-N-methyl-2,3-dihydro-1H-indene-5-carboxylic acid amide]",99
3,"CN(C(=O)c1ccc2c(c1)C(NC(=O)CCC1CCCC1)CC2)C1CCN(c2ccc3cnccc3c2)CC1 (stereo not shown) [CC_H-78, 3-(3-Cyclopentyl-propanoylamino)-N-(1-isoquinolin-6-yl-piperidin-4-yl)-N-methyl-2,3-dihydro-1H-indene-5-carboxylic acid amide]",100
4,"CC(C)CC(=O)NC1CCc2ccc(C(=O)N(C)C3CCN(c4ccc5cnccc5c4)CC3)cc21 (stereo not shown) [CC_H-79, N-(1-Isoquinolin-6-yl-piperidin-4-yl)-N-methyl-3-(3-methyl-butanoylamino)-2,3-dihydro-1H-indene-5-carboxylic acid amide]",99
5,"CN(C(=O)c1ccc2c(c1)C(NC(=O)c1sccc1Cl)CC2)C1CCN(c2ccc3cnccc3c2)CC1 (stereo not shown) [CC_H-80, 3-Chloro-N-[6-[(1-isoquinolin-6-yl-piperidin-4-yl)-methyl-carbamoyl]-2,3-dihydro-1H-inden-1-yl]-thiophene-2-carboxylic acid amide]",98
6,"Cc1cc(N2CCC(N(C)C(=O)c3ccc4c(c3)C(N(C)C(=O)C3CCCCC3)CC4)CC2)cc(C)n1 (stereo not shown) [CC_H-81, 3-(Cyclohexanecarbonyl-methyl-amino)-N-[1-(2,6-dimethyl-pyridin-4-yl)-piperidin-4-yl]-N-methyl-2,3-dihydro-1H-indene-5-carboxylic acid amide]",100
7,"Cc1cc(N2CCC(N(C)C(=O)c3ccc4c(c3)C(N(C)C(=O)c3cc(F)ccc3Cl)CC4)CC2)cc(C)n1 (stereo not shown) [CC_H-82, 3-[(2-Chloro-5-fluoro-benzoyl)-methyl-amino]-N-[1-(2,6-dimethyl-pyridin-4-yl)-piperidin-4-yl]-N-methyl-2,3-dihydro-1H-indene-5-carboxylic acid amide]",100
8,"Cc1cc(N2CCC(N(C)C(=O)c3ccc4c(c3)C(N(C)C(=O)c3cccc(Cl)c3Cl)CC4)CC2)cc(C)n1 (stereo not shown) [CC_H-83, 3-[(2,3-Dichloro-benzoyl)-methyl-amino]-N-[1-(2,6-dimethyl-pyridin-4-yl)-piperidin-4-yl]-N-methyl-2,3-dihydro-1H-indene-5-carboxylic acid amide]",100
9,"Cc1cc(N2CCC(N(C)C(=O)c3ccc4c(c3)C(N(C)C(=O)CCC3CCCC3)CC4)CC2)cc(C)n1 (stereo not shown) [CC_H-84, 3-(3-Cyclopentyl-propanoyl-methyl-amino)-N-[1-(2,6-dimethyl-pyridin-4-yl)-piperidin-4-yl]-N-methyl-2,3-dihydro-1H-indene-5-carboxylic acid amide]",100
10,"Cc1cccc(C)c1C(=O)NC1CC(C)(C)c2ccc(C(=O)N(C)C3CCN(c4ccncc4)CC3)cc21 (stereo not shown) [CC_H-85, 3-[(2,6-Dimethyl-benzoyl)amino]-N,1,1-trimethyl-N-(1-pyridin-4-yl-piperidin-4-yl)-2,3-dihydro-indene-5-carboxylic acid amide]",99
11,"Cc1cc(N2CCC(N(C)C(=O)c3ccc4c(c3)C(N(C)C(=O)c3cnccc3C(F)(F)F)CC4)CC2)cc(C)n1 (stereo not shown) [CC_H-86, N-[6-[[1-(2,6-Dimethyl-pyridin-4-yl)-piperidin-4-yl]-methyl-carbamoyl]-2,3-dihydro-1H-inden-1-yl]-N-methyl-4-(trifluoromethyl)-pyridine-3-carboxylic acid amide]",95
12,"Cc1cc(N2CCC(N(C)C(=O)c3ccc4c(c3)C(N(C)C(=O)c3ccccc3Cl)CC4)CC2)cc(C)n1 (stereo not shown) [CC_H-87, 3-[(2-Chloro-benzoyl)-methyl-amino]-N-[1-(2,6-dimethyl-pyridin-4-yl)-piperidin-4-yl]-N-methyl-2,3-dihydro-1H-indene-5-carboxylic acid amide]",100
13,"Cc1cc(N2CCC(N(C)C(=O)c3ccc4c(c3)C(N(C)C(=O)c3sccc3Cl)CC4)CC2)cc(C)n1 (stereo not shown) [CC_H-88, 3-Chloro-N-[6-[[1-(2,6-dimethyl-pyridin-4-yl)-piperidin-4-yl]-methyl-carbamoyl]-2,3-dihydro-1H-inden-1-yl]-N-methyl-thiophene-2-carboxylic acid amide]",100
14,"CN(C(=O)c1ccc2c(c1)C(NS(=O)(=O)Cc1ccccc1C(F)(F)F)CC2(C)C)C1CCN(c2ccncc2)CC1 (stereo not shown) [CC_H-89, N,1,1-Trimethyl-N-(1-pyridin-4-yl-piperidin-4-yl)-3-[[[2-(trifluoromethyl)-phenyl]-methylsulfonyl]amino]-2,3-dihydro-indene-5-carboxylic acid amide]",100
15,"Cc1cc(N2CCC(N(C)C(=O)c3ccc4c(c3)C(N(C)C(=O)CC(C)C)CC4)CC2)cc(C)n1 (stereo not shown) [CC_H-90, N-[1-(2,6-Dimethyl-pyridin-4-yl)-piperidin-4-yl]-N-methyl-3-[methyl-(3-methyl-butanoyl)-amino]-2,3-dihydro-1H-indene-5-carboxylic acid amide]",100
16,"Cc1cc(N2CCC(N(C)C(=O)c3ccc4c(c3)C(N(C)C(=O)c3c(C)cccc3C)CC4)CC2)cc(C)n1 (stereo not shown) [CC_H-91, 3-[(2,6-Dimethyl-benzoyl)-methyl-amino]-N-[1-(2,6-dimethyl-pyridin-4-yl)-piperidin-4-yl]-N-methyl-2,3-dihydro-1H-indene-5-carboxylic acid amide]",99
17,"Cc1cc(N2CCC(N(C)C(=O)c3ccc4c(c3)C(N(C)C(=O)c3cncnc3)CC4)CC2)cc(C)n1 (stereo not shown) [CC_H-92, N-[6-[[1-(2,6-Dimethyl-pyridin-4-yl)-piperidin-4-yl]-methyl-carbamoyl]-2,3-dihydro-1H-inden-1-yl]-N-methyl-pyrimidine-5-carboxylic acid amide]",98
18,"CN(C(=O)c1ccc2c(c1)C(NS(=O)(=O)c1c(Cl)cccc1C(F)(F)F)CC2(C)C)C1CCN(c2ccncc2)CC1 (stereo not shown) [CC_H-93, 3-[[[2-Chloro-6-(trifluoromethyl)-phenyl]sulfonyl]amino]-N,1,1-trimethyl-N-(1-pyridin-4-yl-piperidin-4-yl)-2,3-dihydro-indene-5-carboxylic acid amide]",100
19,"CN(C(=O)NC1CCCc2ccc(C(=O)N(C)C3CCN(c4ccncc4)CC3)cc21)c1ccccc1Cl (stereo not shown) [CC_H-94, 8-[[(2-Chlorophenyl)-methyl-carbamoyl]amino]-N-methyl-N-(1-pyridin-4-yl-piperidin-4-yl)-5,6,7,8-tetrahydro-naphthalene-2-carboxylic acid amide]",100
